Patent publication US8008074B2, “Compositions and methods for improving bone mass through modulation of receptors of PTH and fragments thereof” (The UAB Research Foundation, priority 2006, dated 2011)

How the values were obtained:
MPK1, RANKL and OPG mRNA = assay: Real-Time PCR of PTH target genes in bone tissue of injected rats; assay type: in vivo, rat; details: rats injected with PTH (PTH (1-34))
Source text: Immunohistochemical staining of representative sections with antibody against β-catenin at 10× objective and 40× objective counterstained with hematoxylin from either primary spongliosa subjacent to the epiphyseal growth plates or Spongiosa subjacent to diaphyseal hematopoietic bone marrow of different time points after PTH single injection in rats. […] Each value is the mean±SEM of determinations in three independent slides of each animal and three animals of each group. Panels B and C show graphs of the expression of MPK1 mRNA and the ratio of RANKL/OPG as quantified by real-time PCR in cavaria tissue from the same animals. […] Panel D is a graph showing the numbers of β-catenin-positive osteoblasts as a percent of total osteoblasts per field that were determined. […]
It has been reported that intermittent PTH treatment targeted proliferating cells in the primary spongiosa of young rat distal femur metaphysis, resulting in an increased number of osteoblasts (Oniya, 1995, Bone). […] Quantitation of MPK1, RANKL, OPG, and GAPDH with specific primers was performed using a DNA Engine Opticon continuous fluorescence detection system (MJ Research, Logan, Utah) with SYBR Green I as the method of detection. […] Briefly, quantitative PCR was performed in a total reaction volume of 20 μl per […]. […]

LRP5/6 = assay: Immunostaining of phosphorylated PPPSP motif of LRP5/6 in rat trabecular bone; assay type: in vivo; details: rats, single PTH injection
Experimental: To further examine whether LRP5/6 mediates PTH-elevated β-catenin levels in vivo, trabecular bone sections were immunostained with the antibody against phosphorylated PPPSP motif. Formalin-fixed tissue sections of 5 μm thickness were deparaffinized in xylene and rehydrated in graded alcohols. Antigen retrieval was achieved by incubating tissue sections in boiling 10 mmol/L citrate buffer (pH 6.0) for 5 minutes in a microwave oven. All sections were then incubated with hydrogen peroxide for 5 minutes. Subsequently, sections were incubated with the primary antibodies against β-catenin or LRP6 1490 for 1 hour at room temperature. After rinsing the primary antibody in T-PBS, antibody detection was accomplished using the Super Sensitive biotin-streptavidin horseradish peroxidase detection kit (Biogenex, San Ramon, Calif.). The diaminobenzidine tetrachloride Super Sensitive substrate kit (Biogenex, San Ramon, Calif.) was used to visualize the antibody-antigen complex. The sections were then counterstained with hematoxylin. Appropriate negative controls, consisting of tissue sections of each case processed without the addition of primary antibody, were prepared along with positive multitissue control sections. Only those cases with greater than 10% immunohistochemical stains were considered as positive. Assessment of the immunohistochemical staining was performed independently by two pathologists. Contrasting results were discussed until an agreement was reached.
The pattern of phosphorylated LRP5/6 was correlated with the changes of β-catenin levels induced by PTH in Rat osteoblasts.

LRP6 [1] = target: T1, LRP6 (Homo sapiens, UniProt O75581); assay: LRP6 phosphorylation at the PPPSP motif (Western blot); assay type: cell-based; details: without added GSK3β; data not shown
T1 construct: The cell lysates were immunoprecipitated for endogenous LRP6; endogenous in cells; host or cells: UMR-106
Experimental: (§1) UMR-106 cells were treated with either PTH or Wnt-3a. The cell lysates were immunoprecipitated for endogenous LRP6, and the precipitated immunocomplexes were detected by Western blotting with an antibody that specifically recognizes the phosphorylated PPPSP motifs (aa, 1490) (Tamai et al., 2004). […] To further confirm the role of PTH in inducing phosphorylation of LRP5 and LRP6 individually, HEK293 cells were transfected with HA-tagged LRP5, and the phosphorylated LRP5 was detected by Western blotting of the anti-HA immunoprecipitates with Ab1490.
(§2) If the observation is true, then the phosphorylated PPPSP motif will serve as an Axin docking site.

LRP6 [2] = target: T2, LRP6 (Rattus norvegicus, UniProt A0A0G2K0H3); assay: as above; assay type: cell-based; details: UMR-106 cells, endogenous LRP6; data not shown
T2 construct: The cell lysates were immunoprecipitated for endogenous LRP6; endogenous in cells; host or cells: UMR-106
Experimental: as §1, §2

T1 sequence (O75581 20-1613): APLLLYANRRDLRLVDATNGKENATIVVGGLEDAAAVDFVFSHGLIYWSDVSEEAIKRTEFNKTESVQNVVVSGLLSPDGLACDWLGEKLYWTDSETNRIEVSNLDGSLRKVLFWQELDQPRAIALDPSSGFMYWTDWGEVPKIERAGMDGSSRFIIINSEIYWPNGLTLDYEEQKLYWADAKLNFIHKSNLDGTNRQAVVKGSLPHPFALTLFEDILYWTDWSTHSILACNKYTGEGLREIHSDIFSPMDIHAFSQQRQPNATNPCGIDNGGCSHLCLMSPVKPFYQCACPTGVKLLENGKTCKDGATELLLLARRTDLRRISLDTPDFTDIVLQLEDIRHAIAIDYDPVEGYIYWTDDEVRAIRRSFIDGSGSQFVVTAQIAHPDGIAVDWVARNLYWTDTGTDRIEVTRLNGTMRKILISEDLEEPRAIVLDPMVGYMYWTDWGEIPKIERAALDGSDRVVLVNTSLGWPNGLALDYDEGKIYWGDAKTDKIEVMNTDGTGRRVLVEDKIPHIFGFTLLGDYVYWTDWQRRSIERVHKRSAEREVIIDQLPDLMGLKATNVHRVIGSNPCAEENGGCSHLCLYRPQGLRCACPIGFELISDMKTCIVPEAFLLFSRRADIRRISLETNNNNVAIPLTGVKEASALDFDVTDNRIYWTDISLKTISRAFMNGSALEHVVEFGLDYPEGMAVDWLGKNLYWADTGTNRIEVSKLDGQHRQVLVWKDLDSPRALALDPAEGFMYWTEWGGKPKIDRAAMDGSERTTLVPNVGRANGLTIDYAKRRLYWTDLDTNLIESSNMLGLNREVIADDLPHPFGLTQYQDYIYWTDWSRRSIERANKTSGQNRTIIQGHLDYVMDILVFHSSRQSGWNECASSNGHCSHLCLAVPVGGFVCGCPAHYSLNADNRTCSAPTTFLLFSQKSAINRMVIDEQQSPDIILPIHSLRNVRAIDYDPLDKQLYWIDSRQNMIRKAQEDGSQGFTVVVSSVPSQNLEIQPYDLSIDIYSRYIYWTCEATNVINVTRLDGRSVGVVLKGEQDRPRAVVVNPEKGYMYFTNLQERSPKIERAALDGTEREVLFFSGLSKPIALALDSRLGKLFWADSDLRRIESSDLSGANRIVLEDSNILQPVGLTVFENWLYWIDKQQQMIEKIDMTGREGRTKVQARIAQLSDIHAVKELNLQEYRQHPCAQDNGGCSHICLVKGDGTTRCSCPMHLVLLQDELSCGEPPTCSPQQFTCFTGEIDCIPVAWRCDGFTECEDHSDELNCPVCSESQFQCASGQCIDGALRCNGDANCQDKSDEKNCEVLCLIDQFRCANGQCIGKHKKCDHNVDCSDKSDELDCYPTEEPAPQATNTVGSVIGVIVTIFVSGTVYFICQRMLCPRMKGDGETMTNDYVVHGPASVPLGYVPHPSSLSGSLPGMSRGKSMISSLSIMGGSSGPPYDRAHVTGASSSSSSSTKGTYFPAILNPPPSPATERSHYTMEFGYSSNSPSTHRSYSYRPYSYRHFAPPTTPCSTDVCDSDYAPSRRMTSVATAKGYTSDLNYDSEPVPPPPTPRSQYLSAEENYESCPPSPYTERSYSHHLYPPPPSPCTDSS
T2 sequence (A0A0G2K0H3 20-1611): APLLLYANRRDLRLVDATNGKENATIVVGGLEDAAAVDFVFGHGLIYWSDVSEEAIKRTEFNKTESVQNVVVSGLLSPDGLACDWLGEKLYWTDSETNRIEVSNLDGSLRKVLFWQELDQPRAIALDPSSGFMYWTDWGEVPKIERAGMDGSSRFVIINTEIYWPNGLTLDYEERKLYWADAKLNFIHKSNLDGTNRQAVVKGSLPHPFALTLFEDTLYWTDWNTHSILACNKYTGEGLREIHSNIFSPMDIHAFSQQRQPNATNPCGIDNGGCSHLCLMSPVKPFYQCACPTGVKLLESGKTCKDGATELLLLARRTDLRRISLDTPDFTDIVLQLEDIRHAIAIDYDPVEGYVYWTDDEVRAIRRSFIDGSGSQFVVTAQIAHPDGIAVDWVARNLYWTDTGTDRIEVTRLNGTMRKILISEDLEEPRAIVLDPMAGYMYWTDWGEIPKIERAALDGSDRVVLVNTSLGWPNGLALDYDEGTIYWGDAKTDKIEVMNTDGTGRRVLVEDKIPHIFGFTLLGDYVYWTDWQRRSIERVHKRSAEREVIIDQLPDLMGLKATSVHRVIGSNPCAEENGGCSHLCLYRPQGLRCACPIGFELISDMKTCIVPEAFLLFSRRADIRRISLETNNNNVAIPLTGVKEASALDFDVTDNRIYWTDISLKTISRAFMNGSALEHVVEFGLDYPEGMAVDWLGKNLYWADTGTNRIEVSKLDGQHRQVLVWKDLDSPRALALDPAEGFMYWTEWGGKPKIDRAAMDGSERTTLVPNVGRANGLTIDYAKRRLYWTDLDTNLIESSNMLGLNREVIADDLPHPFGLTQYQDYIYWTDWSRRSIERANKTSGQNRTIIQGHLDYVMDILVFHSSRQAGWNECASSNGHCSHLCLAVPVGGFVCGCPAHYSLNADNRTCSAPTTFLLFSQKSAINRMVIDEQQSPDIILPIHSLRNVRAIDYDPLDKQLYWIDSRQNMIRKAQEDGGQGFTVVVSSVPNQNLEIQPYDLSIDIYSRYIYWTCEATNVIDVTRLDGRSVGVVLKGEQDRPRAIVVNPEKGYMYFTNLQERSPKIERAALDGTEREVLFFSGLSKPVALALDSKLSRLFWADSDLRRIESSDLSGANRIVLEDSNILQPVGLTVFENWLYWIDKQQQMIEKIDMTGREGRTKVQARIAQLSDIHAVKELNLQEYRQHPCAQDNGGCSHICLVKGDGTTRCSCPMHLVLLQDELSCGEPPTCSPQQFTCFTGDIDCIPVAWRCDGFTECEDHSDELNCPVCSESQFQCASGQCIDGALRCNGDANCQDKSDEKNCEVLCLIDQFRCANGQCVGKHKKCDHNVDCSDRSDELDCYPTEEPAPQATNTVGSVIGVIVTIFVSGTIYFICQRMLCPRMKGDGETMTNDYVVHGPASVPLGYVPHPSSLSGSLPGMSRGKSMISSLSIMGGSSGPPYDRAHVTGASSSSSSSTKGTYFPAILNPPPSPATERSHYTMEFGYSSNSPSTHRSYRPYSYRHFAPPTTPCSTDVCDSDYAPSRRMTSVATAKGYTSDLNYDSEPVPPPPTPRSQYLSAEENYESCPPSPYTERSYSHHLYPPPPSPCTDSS

Substance: PTH: Parathyroid hormone ligand, form not stated at the place; figure legends give PTH (1-84) or PTH (1-34)
- MPK1 mRNA expression (MPK1, RANKL and OPG mRNA): stimulated MPK1 mRNA expression
- ratio of RANKL/OPG (MPK1, RANKL and OPG mRNA): increased
- peak of LRP5/6 phosphorylation after PTH injection (LRP5/6): 8 h
- start of LRP5/6 phosphorylation after PTH injection (LRP5/6): 2 h
- LRP5/6 phosphorylation at 24 hours (LRP5/6; 24 hours): disappearing
- phosphorylation of LRP5/6 in preosteoblasts/osteoblasts at the surface of trabecular bone (LRP5/6; data not shown): enhanced phosphorylation of LRP5/6
- total LRP5/6 protein level in osteoblasts of rat tibia bone (LRP5/6; data not shown): remained unchanged
- phosphorylation of LRP6, PTH alone (LRP6 [1]): much weaker stimulation
- LRP6 phosphorylation at the PPPSP motif (LRP6 [2]): rapidly induced LRP6 phosphorylation at the PPPSP motif
